{"source": "patent US9382330B2", "about": "“Pdia4, target of cytopiloyne derivatives, for tumor diagnosis and treatment” (ACADEMIA SINICA, priority 2010, dated 2016)", "key": {"Jurkat cells [1]": {"test_system": "Jurkat cells", "assay": "WST-1 assay (cell viability / growth inhibition)", "format": "cell-based, human", "conditions": "WST-1, 24 hour incubation", "protocol": "WST-1 assays were performed to measure cell viability. Briefly, Jurkat cells (5×10^3) were grown in 100 μl per well. After 24 hour incubation with DMSO or CP derivatives, the cells were incubated with WST-1 at 37° C. for 30 minutes and characterized by 440 nm absorption. To stain BCP-bound proteins of Jurkat cells, 30 μM of DMSO, biotin and BCP was incubated with Jurkat cells for 24 hours, respectively. After washing, the cells underwent surface or intracellular staining with avidin-PE-TR (Caltag, Calif., USA), followed by fluorescence activated cell sorting (FACS) analysis. The FACS data were processed using FCS express 3.0 software (De Novo Inc, CA, USA)."}, "Jurkat cells [2]": {"test_system": "Jurkat cells", "assay": "Cell growth and death by counting living and dead cells with eosin Y", "format": "cell-based", "conditions": "for Jurkat cell growth: indicated concentrations, 6 days", "protocol": "(§1) FIGS. 1A-C Effect of cytopiloyne (CP) and cytopiloyne aglycone (CPA) on cell growth, death and proliferation. FIG. 1A-B are graphs showing effects of CP and CPA on growth and death of Jurkat cells. Jurkat cells were grown in RPMI medium in the presence of DMSO (−), CP and CPA at the indicated concentrations for 6 days. Numbers of living cells (FIG. 1A) and dead cells (FIG. 1B) were counted by using eosin Y and hematocytometer. Growth (%) is defined as 100% multiplied by the ratio of the living cell number with compound treatment to that with the control treatment. Death (%) is defined as 100% multiplied by the ratio of the dead cell number to a total of cells (both living and dead). FIG. 1C is a graph showing effect of CP and CPA on proliferation of Jurkat cells. Jurkat cells, which were already labeled with AFSE, were grown under the same condition as the Jurkat cells shown in FIGS. 1A-B. Mean fluorescent intensity (MFI) of the cells on days 0, 2, 4 and 6 were determined using FACS.\nJurkat cells were infected with different lentiviral particles 2 days prior to use. The cells were divided into 3 aliquots. One aliquot was tested for cell growth for 6 days and the number of live and dead cells was calculated using eosin Y. Another aliquot was stained with AFSE, monitored for cell proliferation for 6 days and followed byFACS analysis. Another aliquot was pulsed with 5-bromo-2-deoxyuridine (BrdU) for 30 minutes and chased for 0 to 48 hours. The cells underwent intracellular staining with anti-BrdU antibody and FACS analysis. The other aliquot was tested for caspase activity. Caspase 3/7 fluorescent substrate was incubated with 1 μg of total lysate and caspase activity, shown in relative light unit (RLU), was measured with Victor V luminescence counter. To evaluate in vivo tumor growth, lentivirally infected Jurkat cells (1×10^6) were subcutaneously inoculated into scid/beige mice. Tumor incidence, tumor size and survival rate of the tumor-bearing mice were scored."}, "Jurkat cells [3]": {"test_system": "Jurkat cells", "assay": "AFSE cell proliferation assay (FACS)", "format": "cell-based, human", "conditions": "low doses, up to 6 days", "protocol": "as §1\nJurkat cells were infected with different lentiviral particles 2 days prior to use. […] One aliquot was tested for cell growth for 6 days and the number of live and dead cells was calculated using eosin Y. Another aliquot was stained with AFSE, monitored for cell proliferation for 6 days and followed byFACS analysis. […] Tumor incidence, tumor size and survival rate of the tumor-bearing mice were scored."}, "GST-Pdia4 [4]": {"molecular_target": "T1, GST-Pdia4 (Homo sapiens, UniProt P13667)", "T1 construct": "made in house; host or cells: E. coli BL21 DE3 pLysS", "T1 sequence (P13667 21-645)": "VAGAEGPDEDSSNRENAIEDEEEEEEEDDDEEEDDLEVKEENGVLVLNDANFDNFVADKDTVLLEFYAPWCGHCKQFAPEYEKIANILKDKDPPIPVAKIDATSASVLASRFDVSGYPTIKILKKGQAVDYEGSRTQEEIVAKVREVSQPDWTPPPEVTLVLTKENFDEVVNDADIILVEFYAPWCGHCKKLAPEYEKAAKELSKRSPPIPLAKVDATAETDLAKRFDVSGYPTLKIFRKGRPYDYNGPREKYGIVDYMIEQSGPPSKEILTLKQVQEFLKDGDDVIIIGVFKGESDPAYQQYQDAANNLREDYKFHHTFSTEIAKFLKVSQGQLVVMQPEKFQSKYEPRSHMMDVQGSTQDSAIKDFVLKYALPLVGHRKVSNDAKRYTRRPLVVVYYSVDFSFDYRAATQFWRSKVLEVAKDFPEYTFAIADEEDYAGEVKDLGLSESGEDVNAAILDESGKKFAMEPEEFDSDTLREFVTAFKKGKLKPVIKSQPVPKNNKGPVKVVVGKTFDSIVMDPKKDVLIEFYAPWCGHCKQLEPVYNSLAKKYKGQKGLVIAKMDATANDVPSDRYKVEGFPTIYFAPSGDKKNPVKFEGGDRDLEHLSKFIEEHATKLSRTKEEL", "assay": "Competition assay for binding of GST-Pdia4 and BCP", "conditions": "10-fold and 50-fold excess", "protocol": "(§2) pGEX4T3-Hspa5, pGEX4T3-Pdia4, and pGEX4T3-TecSH3 were obtained by cloning human Hspa5 cDNA, human Pdia4 cDNA and the SH3 domain of mouse Tec cDNA to a pGEX4T3 vector, respectively. GST fusion proteins were purified from the bacterial host E. coli BL21 DE3 pLysS, which harbored the above constructs, according to the manufacturer's instructions (Amersham Biosciences, NJ, USA). Glutathione agarose bead-bound GST fusion proteins (0.15 μg) were incubated with DMSO vehicle or BCP (0.026 μg) for overnight. The proteins were separated by SDS-PAGE and blotted with avidin-POD. For competition assays, CP (0.16 μg (10-fold) and 0.81 μm (50-fold)) or CPA (0.09 μg (10-fold) and 0.45 μm (50-fold)) was added to the above incubation. For interference assay, 2-mercaptoethanol (2.2 mg) was added to the incubation. To test effect of CPA on disulfide isomerase activity of GST-Pdia4, reduced BPTI (0.39 μg) was incubated with redox buffer in the presence of vehicle, 5.64 μg GST-Pdia4 or 5.64 μg GST-Pdia4 plus CPA (0.33 μg). Enzymatic activity of GST-Pdia4, shown as fraction remaining (%), was determined by the conversion of the reduced BPTI into disulfide intermediates as described (Satoh, M., et al. (2005) Cell Stress Chap. 10(3), 211-220)."}, "T cell": {"test_system": "T cell", "conditions": "cited from earlier work"}, "GST-Pdia4 [5]": {"molecular_target": "T1, GST-Pdia4", "assay": "Pull down assay of GST fusion proteins with BCP (avidin-POD blot)", "format": "binding", "conditions": "2-mercaptoethanol added to the incubation", "protocol": "as §2"}, "[6]": {"test_system": "TS/A, mammary gland carcinoma", "assay": "Cell death of TS/A mammary gland carcinoma", "format": "cell-based"}, "GST-Pdia4 [7]": {"molecular_target": "T1, GST-Pdia4", "assay": "MS/MS analysis of GST-Pdia4/CPA adduct", "format": "binding", "conditions": "24 hours, LC/MS/MS", "protocol": "Band 1 were cut from the coomassie blue gel and subjected to in gel digestion. Briefly, the gel was dehydrated with acetonitrile, vacuum dried, and rehydrated with ammonium bicarbonate at 37° C. for 1 hour. After alkylation with iodoacetamide, the gel was suspended with 25 mM ammonium bicarbonate containing trypsin at 37° C. for 16 hours. Tryptic peptides were analyzed with LC-nanoESI-MS/MS system. Briefly, the peptides were trapped and desalted isocratically on an LC-Packings PepMap™ C18 μ-Precolumn™ Cartidge (300 μm i.d.×5 mm; Dionex, Calif., USA) for 2 minutes with 0.1% formic acid. The peptides were separated on a C18 capillary column (15 cm×75 μm i.d.) packed with 5 μm, Zorbax 300 SB C18 paticles (Micro-Tech Scientific, Calif., USA), eluted using a 40 minute fast gradient of 5% to 80% acetonitrile containing 0.1% formic acid and subjected to Micromass Q-TOF Ultima™ API mass spectrometer, equipped with an ESI source. After data acquisition, MS/MS spectra for the sample were combined and querred against non-redundant protein database using Mascot program (Matrix Science, MA, USA). For MS/MS analysis of GST-Pdia4 and GST-Pdia4/CPA adduct, GST-Pdia4 (200 μg) was incubated with DMSO or CPA (24 μg) for 24 hours. The proteins underwent LC/MS/MS analysis."}, "GST-Pdia4 [8]": {"molecular_target": "T1, GST-Pdia4", "assay": "Disulfide isomerase activity of GST-Pdia4 with reduced BPTI", "format": "biochemical", "conditions": "reduced BPTI substrate, redox buffer", "protocol": "as §2"}, "[9]": {"test_system": "human umbilical vein endothelial cells", "conditions": "cited from earlier work"}, "tumor cell": {"test_system": "tumor cell", "conditions": "cited from earlier work"}}, "note": "Entries after “also recorded” stand apart in the source; their conditions may differ. Where two headings read alike, the source gives them in different places.", "data": [{"compound": "CC#CC#CC#CC#CCCC(CO)O[C@@H]1O[C@H](CO)[C@@H](O)[C@H](O)[C@H]1O", "note": "(some centres unmarked) [CP, cytopiloyne]", "values": [{"measurement": "half maximal inhibitory concentration (IC50) for growth inhibition of Jurkat cells", "setting": "Jurkat cells [1]", "result": 52.8, "unit": "µg/mL"}, {"measurement": "cytotoxicity at low doses", "setting": "Jurkat cells [2]", "result": "did not show significant cytotocxicity"}, {"measurement": "Jurkat cell growth", "setting": "Jurkat cells [2]", "result": "inhibited Jurkat cell growth in a dose-dependent manner"}, {"measurement": "Jurkat cell proliferation", "setting": "Jurkat cells [3]", "result": "significantly suppressed Jurkat cell proliferation"}, {"measurement": "interference with interaction between BCP and GST-Pdia4", "setting": "GST-Pdia4 [4]", "result": "could interfere with the interaction between BCP and GST-Pdia4 at a dose-dependent manner"}, {"measurement": "T cell proliferation", "setting": "T cell", "result": "showed an inhibition of T cell proliferation"}]}, {"compound": "OCCS", "note": "[2-mercaptoethanol]", "values": [{"measurement": "interference of GST-Pdia4/BCP interaction by reducing agent", "setting": "GST-Pdia4 [5]", "result": "significantly diminished the interplay of GST-Pdia4 and BCP"}]}, {"compound": "CC#CC#CC#CC#CCCC(O)CO", "note": "(centres unmarked) [CPA, cytopiloyne aglycone]", "values": [{"measurement": "half maximal inhibitory concentration (IC50) for growth inhibition of Jurkat cells", "setting": "Jurkat cells [1]", "result": 2.5, "unit": "µg/mL"}, {"measurement": "cytotoxicity at low doses", "setting": "Jurkat cells [2]; CPA from 0.7 to 1.3 μg/ml", "result": "did not show significant cytotocxicity"}, {"measurement": "Jurkat cell growth", "setting": "Jurkat cells [2]", "result": "inhibited Jurkat cell growth in a dose-dependent manner"}, {"measurement": "Jurkat cell proliferation", "setting": "Jurkat cells [3]", "result": "significantly suppressed Jurkat cell proliferation"}, {"measurement": "cell death of TS/A", "setting": "[6]", "result": "induce cell death"}, {"measurement": "interference with interaction between BCP and GST-Pdia4", "setting": "GST-Pdia4 [4]", "result": "could interfere with the interaction between BCP and GST-Pdia4 at a dose-dependent manner; also recorded: more effective for the interference than CP"}, {"measurement": "covalent adduct of CPA on GST-Pdia4", "setting": "GST-Pdia4 [7]", "result": "adducted to two cysteine residues of the second CGHC motif of Pdia4"}, {"measurement": "disulfide isomerase activity of GST-Pdia4", "setting": "GST-Pdia4 [8]", "result": "inhibited this activity"}, {"measurement": "cell death of human umbilical vein endothelial cells", "setting": "[9]", "result": "promoted cell death"}]}, {"compound": "bacitricin", "values": [{"measurement": "tumor cell death", "setting": "tumor cell", "result": "cause tumor cell death"}]}]}
